Source: ChEMBL document CHEMBL1144752, “Synthesis and antioxidant properties of novel N-methyl-1,3,4-thiadiazol-2-amine and 4-methyl-2H-1,2,4-triazole-3(4H)-thione derivatives of benzimidazole class” (Bioorg Med Chem, 2008)
The source made the active and inactive calls. No cut-off for these calls is given here.

Experiments:
[1] = tested on: Radical scavenging activity; assay: Antioxidant activity assessed as DPPH free radical scavenging activity after 30 mins; type: functional
[2] = Antioxidant activity assessed as inhibition of superoxide radical anion formation at 0.1 mM; type: functional
Liver microsomes [3] = assay: Antioxidant activity in albino Wistar rat liver microsomes assessed as inhibition of NADPH-dependent lipid peroxidation at 1000 uM; type: functional; conditions: Microsome
Liver microsomes [4] = assay: Antioxidant activity in rat liver microsomes assessed as inhibition of ethoxyresorufin O-deethylase activity at 1000 uM; type: functional; conditions: Microsome
Liver microsomes [5] = assay: Antioxidant activity in rat liver microsomes assessed as inhibition of ethoxyresorufin O-deethylase activity; type: functional, Microsome

| IC50 [1] | IC50 (Liver microsomes [5]) | SMILES | inhibition [2] | Activity (Liver microsomes [3]) | Activity (Liver microsomes [4]) | inhibition (Liver microsomes [4]) | inhibition (Liver microsomes [3]) | Activity [2] |
| --- | --- | --- | --- | --- | --- | --- | --- | --- |
| > 1000 µM |  | CNc1nnc(Cn2c(-c3ccc(O)cc3)nc3ccccc32)s1 | 5% | 129 nmol/mg/min | 36.1 pmol/mg/min |  |  |  |
| > 1000 µM |  | CNc1nnc(Cn2c(-c3ccc(OC)cc3)nc3ccccc32)s1 | 5% | 14.4 nmol/mg/min | 34.3 pmol/mg/min |  | 11% |  |
| 30 µM |  | CNC(=S)NNC(=O)Cn1c(-c2ccc(Cl)cc2)nc2ccccc21 | 38% | 13.1 nmol/mg/min | 28.3 pmol/mg/min |  | 20% |  |
| 140 µM |  | COc1ccc(-c2nc3ccccc3n2Cc2n[nH]c(=S)n2C)cc1 | 5% | 23.1 nmol/mg/min | 15.8 pmol/mg/min |  |  |  |
| 43 µM |  | CNC(=S)NNC(=O)Cn1c(-c2ccc(OC)cc2)nc2ccccc21 |  | 16.1 nmol/mg/min | 34.5 pmol/mg/min |  |  | inactive |
| 462 µM | 450 µM | Cn1c(Cn2c(-c3ccc(Cl)cc3)nc3ccccc32)n[nH]c1=S |  | 26.6 nmol/mg/min | 7.89 pmol/mg/min | 81% |  | inactive |

Second part, the molecule before the results:

| SMILES | IC50 [1] | IC50 (Liver microsomes [5]) | inhibition [2] | Activity (Liver microsomes [3]) | Activity (Liver microsomes [4]) | inhibition (Liver microsomes [4]) | inhibition (Liver microsomes [3]) | Activity [2] |
| --- | --- | --- | --- | --- | --- | --- | --- | --- |
| CNc1nnc(Cn2c(-c3ccc(Cl)cc3)nc3ccccc32)s1 |  |  | 21% | 16.1 nmol/mg/min | 2.46 pmol/mg/min |  |  |  |
| CNC(=S)NNC(=O)Cn1c(-c2ccc(OC)c(OC)c2)nc2cc(Cl)c(Cl)cc21 | 55 µM | 840 µM | 26% | 14.8 nmol/mg/min | 12.3 pmol/mg/min | 70% |  |  |
| CNc1nnc(Cn2c(-c3ccc(OC)c(OC)c3)nc3cc(Cl)c(Cl)cc32)s1 | > 1000 µM |  | 31% | 11.8 nmol/mg/min | 12.2 pmol/mg/min | 66% | 28% |  |
| COc1ccc(-c2nc3cc(Cl)c(Cl)cc3n2Cc2n[nH]c(=S)n2C)cc1OC | 271 µM |  |  | 27.5 nmol/mg/min | 18.3 pmol/mg/min |  |  | inactive |
| Cc1cc(C(C)(C)C)c(O)c(C(C)(C)C)c1 [BUTYLATED HYDROXYTOLUENE] | 54 µM |  |  | 5.68 nmol/mg/min |  |  |  |  |
| Cn1c(Cn2c(-c3ccc(OCc4ccccc4)cc3)nc3ccccc32)n[nH]c1=S | 605 µM |  | 5% | 69.6 nmol/mg/min | 18 pmol/mg/min |  |  |  |
| O=C(Cn1c(-c2ccncc2)nc2ccccc21)NNC(=S)Nc1ccccc1 | 13 µM |  |  |  |  |  |  |  |
| COc1ccc(NC(=S)NNC(=O)Cn2c(-c3ccncc3)nc3ccccc32)cc1 | 12 µM |  |  |  |  |  |  |  |
| Cn1c(=O)c2c(ncn2C)n(C)c1=O [CAFFEINE] |  | 520 µM |  |  | 8.31 pmol/mg/min | 80% |  |  |
| CNC(=S)NNC(=O)Cn1c(-c2ccccc2)nc2ccccc21 | 26 µM |  | 22% | 19.2 nmol/mg/min | 51 pmol/mg/min |  |  |  |
| CNC(=S)NNC(=O)Cn1c(-c2ccc(OCc3ccccc3)cc2)nc2ccccc21 | 74 µM |  | 5% | 96.6 nmol/mg/min | 28.6 pmol/mg/min |  |  |  |
